We go through seven compounds from ChEMBL document CHEMBL5154747, “Discovery of new carbonic anhydrase IX inhibitors as anticancer agents by toning the hydrophobic and hydrophilic rims of the active site to encounter the dual-tail approach” (Eur J Med Chem, 2022).

Format in all cases: functional
What all share (conditions): read-out: GI

The subject of one test is HL-60(TB). Kind of test: Anticancer activity against human HL-60(TB) cells assessed as cell growth inhibition at 10 uM incubated for 48 hrs by SRB assay relative to control. For orientation: In SRB staining, fixed cells bind dye roughly in proportion to their protein.
The test system of another test is SF-268. Kind of test: Anticancer activity against human SF-268 cells assessed as cell growth inhibition at 10 uM incubated for 48 hrs by SRB assay relative to control.
For a further test, the system named is 786-0. Put plainly: Anticancer activity against human 786-0 cells assessed as cell growth inhibition at 10 uM incubated for 48 hrs by SRB assay relative to control.
Another test relates to HCT-15. Put plainly: Anticancer activity against human HCT-15 cells assessed as cell growth inhibition at 10 uM incubated for 48 hrs by SRB assay relative to control.
The next test deals with HCT-116. Put plainly: Anticancer activity against human HCT-116 cells assessed as cell growth inhibition at 10 uM incubated for 48 hrs by SRB assay relative to control.
A further test has as its system MDA-MB-231. Kind of test: Anticancer activity against human MDA-MB-231 cells assessed as cell growth inhibition at 10 uM incubated for 48 hrs by SRB assay relative to control.
A further test concerns LOX IMVI. Put plainly: Anticancer activity against human LOX IMVI cells assessed as cell growth inhibition at 10 uM incubated for 48 hrs by SRB assay relative to control.
Another test deals with RXF 393. Kind of test: Anticancer activity against human RXF 393 cells assessed as cell growth inhibition at 10 uM incubated for 48 hrs by SRB assay relative to control.
The subject of another test is NCI/ADR-RES. Kind of test: Anticancer activity against human NCI/ADR-RES cells assessed as cell growth inhibition at 10 uM incubated for 48 hrs by SRB assay relative to control.
Another test deals with OVCAR-4. Kind of test: Anticancer activity against human OVCAR-4 cells assessed as cell growth inhibition at 10 uM incubated for 48 hrs by SRB assay relative to control.
Another test has as its system SK-MEL-28. Kind of test: Anticancer activity against human SK-MEL-28 cells assessed as cell growth inhibition at 10 uM incubated for 48 hrs by SRB assay relative to control.
The next test relates to OVCAR-5. Kind of test: Anticancer activity against human OVCAR-5 cells assessed as cell growth inhibition at 10 uM incubated for 48 hrs by SRB assay relative to control.
In another test the test system is IGROV-1. Put plainly: Anticancer activity against human IGROV-1 cells assessed as cell growth inhibition at 10 uM incubated for 48 hrs by SRB assay relative to control.
The next test relates to TK-10. Kind of test: Anticancer activity against human TK-10 cells assessed as cell growth inhibition at 10 uM incubated for 48 hrs by SRB assay relative to control.
In another test the test system is SR. Put plainly: Anticancer activity against human SR cells assessed as cell growth inhibition at 10 uM incubated for 48 hrs by SRB assay relative to control.
A further test deals with SNB-75. Put plainly: Anticancer activity against human SNB-75 cells assessed as cell growth inhibition at 10 uM incubated for 48 hrs by SRB assay relative to control.
Another test concerns MOLT-4. Kind of test: Anticancer activity against human MOLT-4 cells assessed as cell growth inhibition at 10 uM incubated for 48 hrs by SRB assay relative to control.
Another test deals with BT-549. Put plainly: Anticancer activity against human BT-549 cells assessed as cell growth inhibition at 10 uM incubated for 48 hrs by SRB assay relative to control.
The subject of a further test is ACHN. Kind of test: Anticancer activity against human ACHN cells assessed as cell growth inhibition at 10 uM incubated for 48 hrs by SRB assay relative to control.
A further test relates to SN12C. Put plainly: Anticancer activity against human SN12C cells assessed as cell growth inhibition at 10 uM incubated for 48 hrs by SRB assay relative to control.

`NS(=O)(=O)c1ccc(Nc2nc(N/N=C/c3c[nH]c4ccccc34)nc(Nc3ccccc3)n2)cc1`: the inhibition of growth at 10 µM in the test with HL-60(TB) amounted to 65%; with SF-268, 40%; in the test with 786-0, 58%; in the test on HCT-15 it was 24%; in the test with HCT-116, 84%; with MDA-MB-231 it was 51%. Besides, the inhibition of growth at 10 µM in the test on LOX IMVI was 110%; with RXF 393, 125%; with NCI/ADR-RES, < 10%; in the test on OVCAR-4, 40%; in the test on SK-MEL-28, 54%; in the test with OVCAR-5 it was 12%. For the same compound, the inhibition of growth at 10 µM in the test on IGROV-1 worked out at 66%; with TK-10, 20%; with SR, 87%; in the test on SNB-75, 29%; with MOLT-4, 80%; in the test with BT-549 it was 51%. The inhibition of growth at 10 µM in the test with ACHN worked out at 18%; with SN12C, 59%.
For the compound `NS(=O)(=O)c1ccc(Nc2nc(N/N=C/c3ccccc3)nc(Nc3ccccc3)n2)cc1`, the inhibition of growth at 10 µM is 40% in the test with HL-60(TB); 19% in the test on SF-268; 33% in the test on 786-0; 13% with HCT-15; 27% in the test on HCT-116; 16% with MDA-MB-231. Besides, the inhibition of growth at 10 µM in the test on LOX IMVI was 35%; in the test on RXF 393 it was 87%; in the test on NCI/ADR-RES, < 10%; in the test with OVCAR-4 it was 15%; in the test on SK-MEL-28, 27%; in the test with OVCAR-5, < 10%. Moreover, the inhibition of growth at 10 µM in the test on IGROV-1 is 38%; with TK-10 it was < 10%; in the test with SR, 25%; in the test on SNB-75, < 10%; in the test on MOLT-4 it was 58%; in the test on BT-549 it was < 10%. The inhibition of growth at 10 µM turned out to be 17% in the test with ACHN and 20% with SN12C.
For `NS(=O)(=O)c1ccc(Nc2nc(N/N=C/c3cccs3)nc(Nc3ccccc3)n2)cc1`, the inhibition of growth at 10 µM in the test with HL-60(TB) came to 29%; in the test with SF-268 it was 16%; with 786-0, 13%; with HCT-15, 14%; with HCT-116, 74%; in the test on MDA-MB-231, 53%. The inhibition of growth at 10 µM was 32% in the test with LOX IMVI; 52% in the test with RXF 393; < 10% in the test on NCI/ADR-RES; 29% in the test with OVCAR-4; 20% in the test on SK-MEL-28; 19% in the test with OVCAR-5. The inhibition of growth at 10 µM is 65% in the test with IGROV-1; < 10% in the test on TK-10; 52% with SR; 16% in the test with SNB-75; 42% in the test with MOLT-4; 22% with BT-549. Further, the results for the inhibition of growth at 10 µM with ACHN and with SN12C were 21% and 13%, respectively.
In the case of `CN(C)c1ccc(/C=N/Nc2nc(Nc3ccccc3)nc(Nc3ccc(S(N)(=O)=O)cc3)n2)cc1`, the inhibition of growth at 10 µM in the test on HL-60(TB) came to 29%; in the test with SF-268, 10%; in the test on 786-0, 31%; with HCT-15, 20%; in the test with HCT-116 it was 45%; with MDA-MB-231, 13%. For the same compound, the inhibition of growth at 10 µM in the test on LOX IMVI was 31%; in the test with RXF 393, 35%; in the test with NCI/ADR-RES, < 10%; in the test on OVCAR-4, < 10%; in the test on SK-MEL-28 it was 10%; in the test with OVCAR-5, < 10%. Moreover, the inhibition of growth at 10 µM with IGROV-1 was 28%; with TK-10, < 10%; in the test with SR it was 29%; in the test on SNB-75, 12%; in the test on MOLT-4, 44%; in the test on BT-549, < 10%. The inhibition of growth at 10 µM in the test with ACHN turned out to be 15%; with SN12C it was 22%.
In the case of `NS(=O)(=O)c1ccc(Nc2nc(N/N=C/C=C/c3ccccc3)nc(Nc3ccccc3)n2)cc1`, the inhibition of growth at 10 µM came out at 61% with HL-60(TB); 53% in the test with SF-268; 62% in the test with 786-0; 55% in the test on HCT-15; 70% in the test with HCT-116; 52% in the test on MDA-MB-231. Further, the inhibition of growth at 10 µM was 72% in the test with LOX IMVI; 108% with RXF 393; < 10% in the test with NCI/ADR-RES; 50% in the test on OVCAR-4; 39% in the test with SK-MEL-28; < 10% in the test with OVCAR-5. In addition, the inhibition of growth at 10 µM in the test on IGROV-1 was found to be 63%; with TK-10 it was 13%; with SR, 85%; in the test with SNB-75, 57%; in the test with MOLT-4, 87%; in the test on BT-549, 34%. Also, the figures for the inhibition of growth at 10 µM in the test on ACHN and in the test on SN12C were 61% and 51%, respectively.
Take `COc1ccc(/C=N/Nc2nc(Nc3ccccc3)nc(Nc3ccc(S(N)(=O)=O)cc3)n2)cc1`: the inhibition of growth at 10 µM in the test with HL-60(TB) was 16%; with SF-268 it was < 10%; in the test with 786-0, 26%; in the test on HCT-15, 31%; with HCT-116, 49%; with MDA-MB-231 it was 32%. Further, the inhibition of growth at 10 µM with LOX IMVI was 47%; in the test on RXF 393, 77%; with NCI/ADR-RES it was < 10%; in the test with OVCAR-4 it was 33%; in the test with SK-MEL-28, 21%; in the test on OVCAR-5 it was 14%. In addition, the inhibition of growth at 10 µM in the test on IGROV-1 came to 41%; with TK-10 it was 20%; in the test on SR it was 51%; in the test on SNB-75 it was 18%; with MOLT-4, 55%; in the test with BT-549, 14%. The inhibition of growth at 10 µM in the test with ACHN turned out to be 24%; in the test with SN12C it was 19%.
Turning to `NS(=O)(=O)c1ccc(Nc2nc(N/N=C/c3ccc(F)cc3)nc(Nc3ccccc3)n2)cc1`, the inhibition of growth at 10 µM with HL-60(TB) came out at 39%; in the test on SF-268 it was 58%; in the test on 786-0, 41%; with HCT-15, 20%; in the test on HCT-116 it was 55%; in the test on MDA-MB-231, 38%. The inhibition of growth at 10 µM in the test with LOX IMVI was 39%; with RXF 393 it was 42%; in the test on NCI/ADR-RES it was < 10%; in the test with OVCAR-4, 44%; in the test with SK-MEL-28 it was 36%; in the test on OVCAR-5, 24%. Besides, the inhibition of growth at 10 µM is 56% in the test with IGROV-1; 98% in the test with TK-10; 42% in the test with SR; < 10% in the test with SNB-75; 78% in the test with MOLT-4; 32% in the test on BT-549. For the same compound, the results for the inhibition of growth at 10 µM with ACHN and in the test on SN12C were 19% and 49%, respectively.
